Experimental data reported in patent EP4029501A1, “COMBINATION OF POLYAROMATIC UREA DERIVATIVES AND GLUCOCORTICOID OR HDAC INHIBITOR FOR THE TREATMENT OF DISEASES OR CONDITIONS ASSOCIATED WITH MUSCLE CELLS AND/OR SATELLITE CELLS” (Anagenesis Biotechnologies, priority 2021, dated 2022).

Experiments:
Format in all cases: cell-based, human
[1] = test system: muscle progenitors derived from DMD hiPSC; test: Myotube assay: total myotube area per well (alpha-actinin staining); settings: Homo sapiens, Myotube, 72 h, DMD or WT cell source not given; for Emax: efficacy, MA = normalized Myotube Area, 3 days incubation; for EC50: myogenic activity, half-maximal generation of myotubes, 10 points dose-response 1.5 nM to 30 µM, 3 days
Method in brief: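 DMD hiPSC-derived muscle progenitors (NCRM-1 background) plated at 3500 cells/well in K5 medium with 5 µM Y-27632, then exposed to compound at 1.5 nM–30 µM for 3 days at 37°C. Cells fixed on day 7, alpha-actinin-immunostained and total myotube area per well quantified; duplicates averaged, EC50 and normalized myotube area derived.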

[2] = test system: muscle progenitors derived from DMD hiPSC; test: Dose response assay of combination treatments with Givinostat or Prednisolone: total myotube area; settings: Homo sapiens, Myotube; compound alone, DRC 4.5 nM to 10 µM, DMD hMPs (figure 6); read-out: potency (EC50) on myotube surface
Excerpt: (§1) • Figure 1 - the workflow of the myotube assay, aiming at monitoring myogenic activity of compounds and effect on satellite-like cells. • Figure 2 - the myogenic activity of compound (i) in a dose-response assay, as shown by an increase of the total myotube surface/well upon increase of compound concentration. • Figure 3 - the positive effect on satellite-like cells of compound (i) in a dose-response assay, as shown by the increase of Pax7-positive cell percentage upon increase of compound concentration. • Figure 4 - representative images for the dose-response of the total myotube area readout for compound (i), corresponding to Figure 2. • Figure 5 - representative images for the dose-response of the percentage of Pax7-positive cell readout for compound (i), corresponding to Figure 3. • Figure 6 - Dose-response curve on muscle progenitors derived from DMD hiPSC. Treatment of muscle progenitors derived from DMD hiPSC with Prednisolone or Givinostat alone inducing a beneficial effect on α-actinin expression (representative of the myotube surface) and a loss of nearly 50 % of Pax7 positive cells (representative of the population of satellite cells) in a dose-dependent manner. The highest concentration represented is 10 µM. The arrows show the point a 0.3 µM. Efficacy values correspond to the highest score of normalized myotube surface (y-axis). Activity values correspond to the half maximal effective concentration (EC50; x-axis). The curve fits were calculated using a 4-parameter logistic regression model (Graphpad PRISM software). Error bars show standard deviation (SD). The picture on the right panel is representative of the highest myotube surface value of the dose-response curve. • Figures 7-9 - Dose-response curve on muscle progenitors derived from DMD hiPSC. Treatment in a dose-dependent manner of muscle progenitors derived from DMD hiPSC with indicated compound alone or with combination with Prednisolone or Givinostat at 0.3 µM. The combination induced an improvement of myogenic capabilities seen with α-actinin expression (representative of the myotube surface) and harbor no worsening of the Pax7 positive cells (representative of the population of satellite cells) compared to Prednisolone or Givinostat alone. The highest concentration of DRC is 10 µM.
Efficacy values correspond to the highest score of normalized myotube surface (y-axis). Activity values correspond to the half maximal effective concentration (EC50; x-axis). The curve fits were calculated using a 4-parameter logistic regression model (Graphpad PRISM software). Error bars show standard deviation (SD). The picture on the right panel is representative of the highest myotube surface value of the dose-response curve.
(§2) Figure 1 provides an example of a Myotube assay workflow. At day 0, hMP are thawed and 3.1 million cells are plated into a T75-flask coated with hESC-qualified Matrigel™ (Corning) in SkGM proliferating medium (PromoCells), supplemented with 5 µM Y-27632 (Tocris Bioscience). On day 2, SkGM proliferating medium is refreshed. On day 4, hMP are harvested and transferred into a 384-well plate coated with collagen type I at a density of 3500 cells/well in a DMEM-based medium, containing 5% of knockout serum replacement (Gibco), 1% PenStrep (Gibco), 1% MEM NEAA (Gibco) and 0.1 mM 2-mercaptoethanol (Gibco) (hereafter "K5 medium") and 5 µM Y-27632. Compounds to be tested are then added in the medium and incubated for 3 days at 37°C. On day 7, cells are fixed and immunostained. For example, myotubes (alpha-actinin staining) and satellite-like (Pax7 staining) cells can be analyzed for total myotube area per well or Pax7-positive cell quantification.
DMD hMPs were put in the Myotube assay according to the workflow described in example 2.1. […]

Pax7 positive cells = test: Dose response assay of combination treatments with Givinostat or Prednisolone: percentage of Pax7-positive cells; settings: for drop of satellite cells content: compound alone at 0.3 µM, DMD hMPs (figure 6); for loss of Pax7 positive cells: compound alone, dose-dependent, highest concentration 10 µM (Figure 6 legend)
Excerpt: as §1, §2
DMD hMPs were put in the Myotube assay according to the workflow described in example 2.1. In particular, Prednisolone (Sigma) or Givinostat (Exclusive Chemistry) were added in all conditions at a fixed concentration equal to 0.3 µM in combination with compounds az or bw or q tested in DRC at 8 concentrations ranging from 4.5 nM to 10 µM, starting from day 4. Also, as control, DRCs with the same range of concentrations were done with Prednisolone alone, Givinostat (figure 6) alone or compounds az or bw or q alone (figures 7 to 9). […]

SMILES | EC50 [1] [nM] | EC50 [2] [nM] | Emax [1] [%] | drop of satellite cells content (Pax7 positive cells) | loss of Pax7 positive cells (Pax7 positive cells) [%]
CC(C)(C)c1cc(NC(=O)Nc2ccc(Oc3ccnc4[nH]c(=O)cnc34)cc2F)n(Cc2ccccc2)n1 [(j), 1-(1-benzyl-3-(tert-butyl)-1 H-pyrazol-5-yl)-3-(2-fluoro-4-((3-oxo-3,4-dihydropyrido[2,3-b]pyrazin-8-yl)oxy)phenyl)urea] | 1000 to 5000 | – | 50 to 75 | – | –
CC(C)(C)c1cc(NC(=O)Nc2ccc(Oc3ccnc4[nH]c(=O)cnc34)cc2F)n(CCN2CCOCC2)n1 [(k), 1-(3-(tert-butyl)-1-(2-morpholinoethyl)-1 H-pyrazol-5-yl)-3-(2-fluoro-4-((3-oxo-3,4-dihydropyrido[2,3-b]pyrazin-8-yl)oxy)phenyl)urea] | 1000 to 5000 | – | 50 to 75 | – | –
CC(C)(C)c1cc(NC(=O)Nc2ccc(Oc3ccnc4[nH]c(=O)cnc34)cc2F)n(-c2ncccn2)n1 [(m), 1-(3-(tert-butyl)-1-(pyrimidin-2-yl)-1 H-pyrazol-5-yl)-3-(2-fluoro-4-((3-oxo-3,4-dihydropyrido[2,3-b]pyrazin-8-yl)oxy)phenyl)urea] | ≥ 5000 | – | 50 to 75 | – | –
CC(=O)n1nc(C(C)(C)C)cc1NC(=O)Nc1ccc(Oc2ccnc3[nH]c(=O)cnc23)cc1F [(o), 1-(1-acetyl-3-(tert-butyl)-1 H-pyrazol-5-yl)-3-(2-fluoro-4-((3-oxo-3,4-dihydropyrido[2,3-b]pyrazin-8-yl)oxy)phenyl)urea] | ≥ 5000 | – | 25 to 50 | – | –
CC(C)(C)c1nnc(NC(=O)Nc2ccc(Oc3ccnc4[nH]c(=O)cnc34)cc2F)s1 [(r), 1-(5-(tert-butyl)-1,3,4-thiadiazol-2-yl)-3-(2-fluoro-4-((3-oxo-3,4-dihydropyrido[2,3-b]pyrazin-8-yl)oxy)phenyl)urea] | ≥ 5000 | – | ≥ 75 | – | –
CC(C)(C)c1cc(NC(=O)Nc2ccc(Oc3ccnc4[nH]c(=O)cnc34)nc2)n(-c2ccccc2)n1 [(t), 1-(3-(tert-butyl)-1-phenyl-1 H-pyrazol-5-yl)-3-(6-((3-oxo-3,4-dihydropyrido[2,3-b]pyrazin-8-yl)oxy)pyridin-3-yl)urea] | < 500 | – | 25 to 50 | – | –
CC(C)(C)c1cc(NC(=O)Nc2ccc(Oc3ccnc4[nH]c(=O)cnc34)cn2)n(-c2ccccc2)n1 [(u), 1-(3-(tert-butyl)-1-phenyl-1 H-pyrazol-5-yl)-3-(5-((3-oxo-3,4-dihydropyrido[2,3-b]pyrazin-8-yl)oxy)pyridin-2-yl)urea] | 1000 to 5000 | – | 25 to 50 | – | –
CC(C)(C)c1cc(NC(=O)Nc2ccc(Oc3ccnc4[nH]c(=O)cnc34)cc2C(F)(F)F)n(-c2ccccc2)n1 [(v), 1-(3-(tert-butyl)-1-phenyl-1H-pyrazol-5-yl)-3-(4-((3-oxo-3,4-dihydropyrido[2,3-b]pyrazin-8-yl)oxy)-2-(trifluoromethyl)phenyl)urea] | < 500 | – | ≥ 75 | – | –
Cc1nc2c(Oc3ccc(NC(=O)Nc4cc(C(C)(C)C)nn4-c4ccccc4)c(F)c3)ccnc2c(=O)[nH]1 [(w), 1-(3-(tert-butyl)-1-phenyl-1 H-pyrazol-5-yl)-3-(2-fluoro-4-((2-methyl-4-oxo-3,4-dihydropyrido[3,2-d]pyrimidin-8-yl)oxy)phenyl)urea] | 1000 to 5000 | – | 50 to 75 | – | –
O=C(Nc1ccc(Oc2ccnc3[nH]c(=O)cnc23)cc1F)Nc1c2c(nn1-c1ccccc1)CCC2 [(x), 1-(2-fluoro-4-((3-oxo-3,4-dihydropyrido[2,3-b]pyrazin-8-yl)oxy)phenyl)-3-(2-phenyl-2,4,5,6-tetrahydrocyclopenta[c]pyrazol-3-yl)urea] | ≥ 5000 | – | 25 to 50 | – | –
CCN(CC)Cc1ccc2cc(COC(=O)Nc3ccc(C(=O)NO)cc3)ccc2c1 [Givinostat, reference compound] | – | ≤ 170 | – | about 50% | ~50

Further lines, with some results ahead:

EC50 [1] [nM] | EC50 [2] [nM] | SMILES | Emax [1] [%] | drop of satellite cells content (Pax7 positive cells) | loss of Pax7 positive cells (Pax7 positive cells) [%]
500 to 1000 | – | CC(C)(C)c1cc(NC(=O)Nc2ccc(Oc3ccnc4[nH]c(=O)cnc34)cc2F)n(-c2cccnc2)n1 [(l), 1-(3-(tert-butyl)-1-(pyridin-3-yl)-1 H-pyrazol-5-yl)-3-(2-fluoro-4-((3-oxo-3,4-dihydropyrido[2,3-b]pyrazin-8-yl)oxy)phenyl)urea] | 50 to 75 | – | –
< 500 | – | CC(C)(C)c1cc(NC(=O)Nc2ccc(Oc3ccnc4[nH]c(=O)cnc34)cc2F)n(-c2ccc3ncccc3c2)n1 [(n), 1-(3-(tert-butyl)-1-(quinolin-6-yl)-1 H-pyrazol-5-yl)-3-(2-fluoro-4-((3-oxo-3,4-dihydropyrido[2,3-b]pyrazin-8-yl)oxy)phenyl)urea] | ≥ 75 | – | –
500 to 1000 | – | CC(C)(C)c1nc(NC(=O)Nc2ccc(Oc3ccnc4[nH]c(=O)cnc34)cc2F)n(-c2ccccc2)n1 [(p), 1-(3-(tert-butyl)-1-phenyl-1 H-1,2,4-triazol-5-yl)-3-(2-fluoro-4-((3-oxo-3,4-dihydropyrido[2,3-b]pyrazin-8-yl)oxy)phenyl)urea] | 25 to 50 | – | –
500 to 1000 | – | CC(C)(C)c1cc(NC(=O)Nc2ccc(Oc3ccnc4[nH]c(=O)cnc34)cc2)n(-c2ccccc2)n1 [(s), 1-(3-(tert-butyl)-1-phenyl-1 H-pyrazol-5-yl)-3-(4-((3-oxo-3,4-dihydropyrido[2,3-b]pyrazin-8-yl)oxy)phenyl)urea] | 50 to 75 | – | –
≥ 5000 | – | O=C(Nc1ccc(Oc2ccnc3[nH]c(=O)cnc23)cc1F)Nc1c(-c2ccccc2)nn2c1CCC2 [(y), 1-(2-fluoro-4-((3-oxo-3,4-dihydropyrido[2,3-b]pyrazin-8-yl)oxy)phenyl)-3-(2-phenyl-5,6-dihydro-4H-pyrrolo[1,2-b]pyrazol-3-yl)urea] | 25 to 50 | – | –
≥ 5000 | – | CSc1cc(Oc2ccnc3[nH]c(=O)cnc23)ccc1NC(=O)Nc1nnc(C(C)(C)C)s1 [(z), 1-(5-(tert-butyl)-1,3,4-thiadiazol-2-yl)-3-(2-(methylthio)-4-((3-oxo-3,4-dihydropyrido[2,3-b]pyrazin-8-yl)oxy)phenyl)urea] | ≥ 75 | – | –
– | ≤ 170 | C[C@]12C=CC(=O)C=C1CC[C@@H]1[C@@H]2[C@@H](O)C[C@@]2(C)[C@H]1CC[C@]2(O)C(=O)CO [Prednisolone, reference compound] | – | about 50% | ~50
